The values that follow come from publication PMC9775191, “A Subset Screen of the Compounds Australia Scaffold Library Identifies 7-Acylaminodibenzoxazepinones as Potent and Selective Hits for Anti-Giardia Drug Discovery” (Biomedicines, 2022).

In experiment [1] the test system is G. duodenalis BRIS/91/HEPU/1279. Kind of experiment: Primary Giardia screen at 10 µM (live-cell imaging, automated counting). The experiment is classed as cell-based, Giardia duodenalis. The settings on record: Giardia duodenalis. An outline of the steps: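 Percent growth versus 0.2% DMSO vehicle, background-corrected with media-only wells, is reported at 24 and 48 h from automated live-cell counts. Testing used 10 μM final in a 3% O2 atmosphere, with plate quality checked by Z' factor.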

Experiment [2] shares this test system. Kind of experiment: Giardia dose response assay, assemblage B. The experiment is classed as cell-based, Giardia duodenalis. As to conditions: Giardia duodenalis, ±SD, max 10 µM. As for the experimental part:
In these assays, compounds were serially diluted (8–12-point doubling dilutions in technical duplicate) in DMSO control media, with all test wells inoculated with parasites (1.5 × 10^4 parasites for BRIS/91/HEPU/1279 and BRIS/91/HEPU/1279m1, or 3 × 10^3 parasites for BRIS/87/HEPU/713). […] All plates were sealed in culture chambers and gassed with 3% O2, 5% CO2 in N2 and incubated at 37 °C for 48 h, with parasites imaged and enumerated at 24 and 48 h. Growth inhibition was calculated as a percentage relative to vehicle controls minus any background as described above and IC50 values were determined using log-linear interpolation as previously described. […] Statistical comparison of IC50 values when required were performed using Student’s t-test.

In experiment [3] the test system is Neonatal foreskin fibroblast (NFF) cells. Kind of experiment: Mammalian cell cytotoxicity assay (sulforhodamine B). It is filed as cell-based, human. The settings on record: for inhibition at 20 µM: Homo sapiens, NFF, ±SD; for SI (48h Gd): Table S2, NFF vs 48 h Giardia IC50. The procedure:
The selectivity of compounds of interest was assessed against NFF cells. Assays were performed using sulforhodamine B and included media only, negative (no compound, no DMSO), and vehicle (DMSO) controls as previously described. A chloroquine control plate was included in each assay. […] Repurchased SN00797640 was tested in dose–response from 100 µM against NFF. Selectivity indices (SI) were calculated by dividing mammalian cell IC50 values by G. duodenalis BRIS/91/HEPU/1279 IC50 values.

The subject of experiment [4] is Acinetobacter baumannii (ATCC 19606). Kind of experiment: Anti-bacterial activity assay. The experiment is classed as cell-based. As to conditions: ATCC19606, 50 µM. As for the experimental part:
(§1) The activity of compounds against methicillin resistant Staphylococcus aureus (ATCC 43300), Escherichia coli (ATCC 25922), Acinetobacter baumannii (ATCC 19606) and Klebsiella pneumoniae (ATCC 700603) was assessed at 50 µM in duplicate as previously described. In brief, mid-log phase bacteria cultures were added to 384-well microtiter plate wells containing compound to final cell density of 5 × 10^5 CFU/mL in 50 µL. Plates were then covered and incubated at 37 °C for 18 h without shaking. Inhibition of bacterial growth was determined by measuring absorbance at 600 nm (Tecan M1000 Pro monochromator plate reader) and calculating percentage growth inhibition relative to the negative media and bacteria without inhibitors. Vancomycin hydrochloride (Sigma-Aldrich an affiliate of Merck KGaA, Darmstadt, Germany, #861987) and colistin sulfate (Sigma-Aldrich an affiliate of Merck KGaA, Darmstadt, Germany, C4461) were on each plate as positive controls for Gram-positive (S. aureus) and Gram-negative (E. coli, A. baumannii and K. pneumoniae) bacteria, respectively.

Experiment [5] concerns Escherichia coli (ATCC 25922). Briefly: Anti-bacterial activity assay. The experiment is classed as cell-based. The settings on record: Escherichia coli, ATCC25922, 50 µM; read-out: Bacterial Inhibition E. coli. The procedure: as §1
The test system of experiment [6] is Klebsiella pneumoniae (ATCC 700603). Briefly: Anti-bacterial activity assay. It is filed as cell-based. As to conditions: ATCC700603, 50 µM, read-out: Bacterial Inhibition K. pneumoniae. As for the experimental part:
as §1

Experiment [7] concerns methicillin resistant Staphylococcus aureus (ATCC 43300). Kind of experiment: Anti-bacterial activity assay. It is filed as cell-based. The settings on record: Staphylococcus aureus, ATCC43300, 50 µM; read-out: Bacterial Inhibition S. aureus. As for the experimental part:
as §1

Where [8] appears, read: 24 h, first singlicate assay, read-out: % Inhibition n=1 24h.
Where [9] appears, read: 24 h, re-assessment, read-out: % Inhibition n=2 24h.
Setting [10] is: 24 h, read-out: Average % Inhibition 24h.
Setting [11] is: 48 h, first singlicate assay, read-out: % Inhibition n=1 48h.
The mark [12] stands for this setting: 48 h, re-assessment, read-out: % Inhibition n=2 48h.
[13] abbreviates: 48 h, read-out: Average % Inhibition 48h.
The mark [14] stands for this setting: 24 h, read-out: G. duodenalis IC50 24h, Table S2, 24 h.
The mark [15] stands for this setting: 48 h, Table S2, 48 h, read-out: G. duodenalis IC50 48h.

Like-named read-outs stand apart in the source and are kept apart here.

The term inhibition denotes the relative decrease from the control value, in per cent. Broadly, the IC50 is the point on the concentration scale where inhibition reaches its midpoint. With `CN(C)CCn1cc(C(=O)c2cc(Cl)ccc2O)cc1-c1nc2ccccc2c(=O)[nH]1` [SN00778038, CN(C)CCn1cc(cc1c1nc2ccccc2c(=O)[nH]1)C(=O)c1cc(Cl)ccc1O], the inhibition at 10 µM in experiment [1] (setting [8]) was 45.3%; in experiment [1] (setting [9]) it was 44.7%; in experiment [1] (setting [10]), 45%; in experiment [1] (setting [11]) it was 85.2%; in experiment [1] (setting [12]), 86.5%; in experiment [1] (setting [13]), 85.8%. Further, the values for the IC50 in experiment [2] (setting [14]) and in experiment [2] (setting [15]) were over 10 µM and 6.39 ± 2.8 µM, respectively. Further, the inhibition at 20 µM in experiment [3] turned out to be 8.4 ± 4.7%. Besides, in experiment [3], the “SI (48h Gd)” value was over 5. For the same molecule, the inhibition at 50 µM in experiment [4] was -8.73%; in experiment [5], -2.44%; in experiment [6], -1.96%; in experiment [7] it was -9.58%.
As for `Cc1ncc([N+](=O)[O-])n1Cc1csc(Cc2ccccc2)n1` [SN00780011, O=N(=O)c1cnc(C)n1Cc1csc(Cc2ccccc2)n1], the inhibition at 10 µM in experiment [1] (setting [8]) stood at 33.3%; in experiment [1] (setting [9]) it was 27%; in experiment [1] (setting [10]), 30.1%; in experiment [1] (setting [11]), 54.9%; in experiment [1] (setting [12]), 79.2%; in experiment [1] (setting [13]) it was 67.1%. The IC50 was over 10 µM in experiment [2] (setting [14]) and 5.48 µM in experiment [2] (setting [15]). Moreover, in experiment [3], the inhibition at 20 µM was found to be 9.2 ± 12.4%. In addition, the “SI (48h Gd)” value in experiment [3] was over 3. Also, the inhibition at 50 µM in experiment [4] was determined as 10.5%; in experiment [5], 8.95%; in experiment [6], 16.4%; in experiment [7] it was 11.7%.
For the molecule `O=[N+]([O-])c1cc(F)ccc1Sc1nnc(N2CCOCC2)s1` [SN00781107, Fc1ccc(Sc2nnc(s2)N2CCOCC2)c(c1)N(=O)=O], the inhibition at 10 µM in experiment [1] (setting [8]) was 34%; in experiment [1] (setting [9]), 27.7%; in experiment [1] (setting [10]) it was 30.8%; in experiment [1] (setting [11]) it was 64.2%; in experiment [1] (setting [12]) it was 57.4%; in experiment [1] (setting [13]) it was 60.8%. Besides, the results for the IC50 in experiment [2] (setting [14]) and in experiment [2] (setting [15]) were 6.87 ± 1.88 µM and 1.86 ± 2.52 µM, respectively. In experiment [3], the inhibition at 20 µM was -19.8 ± 44.9%. The inhibition at 50 µM in experiment [4] turned out to be 3.43%; in experiment [5], 2.28%; in experiment [6], 10.6%; in experiment [7], 4.13%.
Turning to `COc1c(C)cnc(Cn2cnc([N+](=O)[O-])c2)c1C` [SN00782023, COc1c(C)cnc(Cn2cnc(c2)N(=O)=O)c1C], the inhibition at 10 µM in experiment [1] (setting [8]) is 40.2%; in experiment [1] (setting [9]), 11.3%; in experiment [1] (setting [10]), 25.8%; in experiment [1] (setting [11]), 83.4%; in experiment [1] (setting [12]) it was 82.5%; in experiment [1] (setting [13]) it was 82.9%. In addition, the IC50 was determined as 6.8 µM in experiment [2] (setting [14]) and 6.51 µM in experiment [2] (setting [15]). Further, the inhibition at 20 µM in experiment [3] is -6.3 ± 3.6%. For the same molecule, in experiment [3], the “SI (48h Gd)” value was over 3. The inhibition at 50 µM is 9.49% in experiment [4], 5.99% in experiment [5], 8.15% in experiment [6] and 10% in experiment [7].
Regarding `Cc1nn(-c2ccccc2)c2sc(C(=O)N3CCCCC3)cc12` [SN00783575, O=C(N1CCCCC1)c1cc2c(C)nn(c3ccccc3)c2s1], the inhibition at 10 µM in experiment [1] (setting [8]) was found to be 34%; in experiment [1] (setting [9]) it was 8.3%; in experiment [1] (setting [10]), 21.1%; in experiment [1] (setting [11]) it was 63.8%; in experiment [1] (setting [12]), 15.4%; in experiment [1] (setting [13]) it was 39.6%. The IC50 in experiment [2] (setting [14]) and in experiment [2] (setting [15]) was over 10 µM in each case. The inhibition at 20 µM in experiment [3] came out at 26.9 ± 2.5%. Also, the inhibition at 50 µM in experiment [4] is 15.1%; in experiment [5], -4.12%; in experiment [6], 16.3%; in experiment [7] it was 6.02%.
`CC(=O)Nc1ccc([N+](=O)[O-])c2nonc12` [SN00783960, CC(=O)Nc1ccc(N(=O)=O)c2nonc12]: the inhibition at 10 µM in experiment [1] (setting [8]) turned out to be 53.9%; in experiment [1] (setting [9]), 36.2%; in experiment [1] (setting [10]), 45.1%; in experiment [1] (setting [11]), 66.5%; in experiment [1] (setting [12]), 60.2%; in experiment [1] (setting [13]), 63.3%. Moreover, the IC50 in experiment [2] (setting [14]) was determined as 3.1 ± 2.29 µM; in experiment [2] (setting [15]), 3.27 ± 4.08 µM. Moreover, the inhibition at 20 µM in experiment [3] stood at 98.5 ± 3.8%. The “SI (48h Gd)” value in experiment [3] was under 6. For the same molecule, the inhibition at 50 µM amounted to 6.26% in experiment [4], 12% in experiment [5], 19.9% in experiment [6] and 95.3% in experiment [7].
In the case of `COc1cccc(Nc2c3c(nc4ccccc24)CCC3)c1` [SN00784168, COc1cccc(c1)Nc1c2CCCc2nc2ccccc12], the inhibition at 10 µM in experiment [1] (setting [8]) stood at 27.7%; in experiment [1] (setting [9]) it was 16.4%; in experiment [1] (setting [10]), 22%; in experiment [1] (setting [11]), 63.3%; in experiment [1] (setting [12]) it was 61.4%; in experiment [1] (setting [13]), 62.4%. The IC50 in experiment [2] (setting [14]) is over 10 µM; in experiment [2] (setting [15]), 4.58 ± 4.9 µM. Further, the inhibition at 20 µM in experiment [3] amounted to 75.1 ± 0.3%. The “SI (48h Gd)” value in experiment [3] is reported as under 4. For the same molecule, the inhibition at 50 µM was -2.44% in experiment [4], 3.98% in experiment [5], -3.07% in experiment [6] and -10.7% in experiment [7].
As for `Cc1ccc(-n2c(=O)c3c(cnn3C)n(CC(=O)Nc3ccccc3C)c2=O)cc1` [SN00784346, Cc1ccc(cc1)n1c(=O)n(CC(=O)Nc2ccccc2C)c2cnn(C)c2c1=O], the inhibition at 10 µM is 52% in experiment [1] (setting [8]); 55.8% in experiment [1] (setting [9]); 53.9% in experiment [1] (setting [10]); 77.6% in experiment [1] (setting [11]); 76.3% in experiment [1] (setting [12]); 76.9% in experiment [1] (setting [13]). Moreover, the IC50 in experiment [2] (setting [14]) is over 10 µM; in experiment [2] (setting [15]), 7.66 µM. The inhibition at 20 µM in experiment [3] is -1.1 ± 0.8%. In addition, the “SI (48h Gd)” value in experiment [3] is given as over 2. Besides, the inhibition at 50 µM was 0.24% in experiment [4], 3.09% in experiment [5], -2.01% in experiment [6] and 5.68% in experiment [7].
On to `Nc1c(-c2nc(-c3ccccc3)cs2)c2ccccn2c1C(=O)c1ccc2c(c1)OCO2` [SN00785732, O=C(c1ccc2OCOc2c1)c1c(N)c(c2scc(n2)c2ccccc2)c2ccccn12], for which the inhibition at 10 µM worked out at 64.4% in experiment [1] (setting [8]); 62% in experiment [1] (setting [9]); 63.2% in experiment [1] (setting [10]); 82.4% in experiment [1] (setting [11]); 83.8% in experiment [1] (setting [12]); 83.1% in experiment [1] (setting [13]). Further, the IC50 in experiment [2] (setting [14]) was found to be 7.64 µM; in experiment [2] (setting [15]), 7.68 µM. Besides, the inhibition at 20 µM in experiment [3] was found to be 41.6 ± 2.7%. Besides, in experiment [3], the “SI (48h Gd)” value was over 2. For the same molecule, the inhibition at 50 µM in experiment [4] was 9.69%; in experiment [5], 0.23%; in experiment [6], 9.49%; in experiment [7], 2.41%.
